Structures can show the parent of a compound that is named as a salt.

For orientation: IC50 means the concentration that inhibits the measured activity by half. Lower therefore signals greater potency.

The test system of one assay is Entamoeba histolytica. Description: Antimicrobial activity against Entamoeba histolytica. The assay is classed as functional, organism-based.
Take `O=P(O)(O)C(Nc1nccc2ccccc12)P(=O)(O)O`: the 50% inhibitory concentration (IC50) stood at 200 µM.

The molecule `O=P(O)(O)C(Nc1ccc(-c2ccccc2)cc1)P(=O)(O)O` came in with a 50% inhibitory concentration (IC50) of 9 µM.

`O=P(O)(O)C(CNc1ccccn1)P(=O)(O)O` showed an IC50 of 200 µM.

As for `CCCCC(O)(P(=O)(O)O)P(=O)(O)O`, inhibition was half-maximal at 200 µM (IC50).

Turning to `CCn1c2ccccc2c2ccc(NC(P(=O)(O)O)P(=O)(O)O)cc21`, the IC50 was found to be 200 µM.

For `O=P(O)(O)C(O)(Cc1ccccn1)P(=O)(O)O`, half-maximal inhibition (IC50) required 200 µM.

`CCCC(O)(P(=O)(O)O)P(=O)(O)O` came in with an IC50 of 200 µM.

The molecule `CN(CCOc1ccccc1)CCC(O)(P(=O)(O)O)P(=O)(O)O` showed an IC50 of 6 µM.

Molecule `O=P(O)(O)C(O)(CSc1ccncc1)P(=O)(O)O` had an IC50 of 200 µM.

Consider `CCCCCCNC(P(=O)(O)O)P(=O)(O)O` [(HEXYLAMINO)METHYLENEDIPHOSPHONIC ACID], for which the concentration for half-maximal inhibition (IC50) was found to be 200 µM.

On to `O=P(O)(O)C(N1CCOCC1)P(=O)(O)O` [MORPHOLINOMETHYLENEDIPHOSPHONIC ACID], for which the IC50 worked out at 200 µM.

In another assay the test system is Plasmodium falciparum. Description: Antimicrobial activity against Plasmodium falciparum. The assay is classed as functional, organism-based.
For the molecule `CC(C)NC(=N)NC(=N)Nc1ccc(Cl)cc1` [PROGUANIL], the IC50 stood at 36 µM.

The molecule `CC(C)[C@H](CO)Nc1nc(Nc2cccc(Cl)c2)c2ncn(C(C)C)c2n1` [PURVALANOLA] displayed an IC50 of 3 µM.

In turn, `CCc1nc(N)nc(N)c1-c1ccc(Cl)cc1` [PYRIMETHAMINE] showed a half-inhibitory concentration (IC50) of 100 µM.

The molecule `COc1ccc2nc3cc(Cl)ccc3c(Nc3cc(CN4CCCC4)c(O)c(CN4CCCC4)c3)c2n1` [PYRONARIDINE] had an IC50 of 64 µM.

`CCN(CC)CCCC(C)Nc1c2ccc(Cl)cc2nc2ccc(OC)cc12` (stereo unspecified) [QUINACRINE] showed an IC50 of 41 µM.

As for `C=C[C@H]1CN2CC[C@H]1C[C@@H]2[C@@H](O)c1ccnc2ccc(OC)cc12` [QUINIDINE], the concentration for half-maximal inhibition (IC50) was found to be 24 µM.

`C=C[C@H]1CN2CC[C@H]1C[C@H]2[C@H](O)c1ccnc2ccc(OC)cc12` [QUININE] returned an IC50 of 54 µM. This IC50 lies about 2.2-fold higher than the previous one.

`COCCCOc1ccnc(C[S+]([O-])c2nc3ccccc3[nH]2)c1C` (stereo unspecified) [RABEPRAZOLE]: 7 µM corresponded to half-maximal inhibition (IC50). Against the preceding molecule, the IC50 is about 7.7-fold lower.

For `CO[C@H]1/C=C/O[C@@]2(C)Oc3c(C)c(O)c4c(O)c(c(/C=N/N5CCN(C)CC5)c(O)c4c3C2=O)NC(=O)/C(C)=C\C=C\[C@H](C)[C@H](O)[C@@H](C)[C@@H](O)[C@@H](C)[C@H](OC(C)=O)[C@@H]1C` [RIFAMPIN], the midpoint of inhibition, the IC50, lay at 1 µM. This IC50 lies about 7-fold lower than the previous one.

`CN(C)[C@@H]1C(O)=C(C(=O)NCN2CCCC2)C(=O)[C@@]2(O)C(O)=C3C(=O)c4c(O)cccc4[C@@](C)(O)[C@H]3C[C@@H]12` [ROLITETRACYCLINE] gave an IC50 of 21 µM.

Turning to `CC[C@H]1OC(=O)[C@H](C)[C@@H](O[C@H]2C[C@@](C)(OC)[C@@H](O)[C@H](C)O2)[C@H](C)[C@@H](O[C@@H]2O[C@H](C)C[C@H](N(C)C)[C@H]2O)[C@](C)(O)C[C@@H](C)/C(=N\OCOCCOC)[C@H](C)[C@@H](O)[C@]1(C)O` [ROXITHROMYCIN], half-maximal inhibition (IC50) was put at 19 µM.

As for `CCCCCCCCCCOS(=O)(=O)O` [SODIUM DECYL SULFATE], the midpoint of inhibition, the IC50, lay at 460 µM. Against the preceding molecule, the IC50 is about 24-fold higher.

`CCCCCCCCCCCCCCCCOS(=O)(=O)O` [SODIUM HEXADECYL SULFATE] displayed an IC50 of 145 µM.

With `C=C[C@@H]1CN2CC[C@@]3(CNc4c3ccc(O)c4[C@H]3CCCN3C)[C@@H]2C[C@@H]1C[C@H]1c2[nH]c3ccccc3c2CCN1C` [STRYCHNOPHYLLINE], the IC50 was 3 µM.

The molecule `COc1ncnc(NS(=O)(=O)c2ccc(N)cc2)c1OC` [SULFADOXINE] showed an IC50 of 37 µM.

With `C/C=C1/CN2CC[C@]34c5ccccc5N5C(=O)C([C@H]6C[C@]78c9ccccc9N9C(=O)C=C[C@@H]([C@H]97)[C@H]7C[C@@H]8N6C/C7=C/C)=C[C@H]([C@H]53)[C@H]1C[C@H]24` [SUNGUCINE], the IC50 worked out at 2 µM.

Molecule `N=C(N)NCCCCCCCCCCNC(=N)N` [SYNTHALIN] registered a half-inhibitory concentration (IC50) of 16 µM.

With `COc1cc(C)c2c(Oc3cccc(C(F)(F)F)c3)c(OC)cc(NC(C)CCCN)c2n1` (stereo unspecified) [TAFENOQUINE], half-maximal inhibition (IC50) required 147 µM.

With `CC(C)(C)NCc1cc(Nc2ccnc3cc(Cl)ccc23)cc(-c2ccc(Cl)cc2)c1O` [TEBUQUINE], half-maximal inhibition (IC50) was put at 53 µM.

`O=C1NC(=O)C(C(=O)Nc2ccc(Cl)cc2)c2ccccc21` (stereo unspecified) [TESICAM] displayed an IC50 of 16 µM.

With `C/C=C1/C[n+]2ccc3c([nH]c4ccccc43)c2C[C@@H]1C1=CN2c3ccccc3[C@]34CCN5C/C(=C/C)[C@H](C[C@H]53)[C@@H]([C@@H]1O)[C@H]24` [TETRADEHYDROLONGICAUDATINE], the half-maximal inhibitory concentration (IC50) was 1 µM.

Turning to `CC(C)=CC[C@@]1(C)SC(=O)C(C)=C1O` [THIOLACTOMYCIN 2], the IC50 worked out at 100 µM.

The molecule `CC1=C(O)[C@@](C)(CCC(C)C)SC1=O` [THIOLACTOMYCIN 3] returned a half-maximal inhibitory concentration (IC50) of 259 µM.

`CC(C)=CCC/C(C)=C/C[C@@]1(C)SC(=O)C(C)=C1O` [THIOLACTOMYCIN 4] had a 50% inhibitory concentration (IC50) of 8 µM.

Molecule `CC(C)=CCCC(C)CC[C@@]1(C)SC(=O)C(C)=C1O` (stereo partly specified) [THIOLACTOMYCIN 5] gave an IC50 of 57 µM.

As to `CC1=C(O)[C@@](C)(CCC(C)CCCC(C)C)SC1=O` (stereo partly specified) [THIOLACTOMYCIN 6], the concentration for half-maximal inhibition (IC50) was found to be 71 µM.

In turn, `CC(C)=CCC/C(C)=C/CC/C(C)=C/C[C@@]1(C)SC(=O)C(C)=C1O` [THIOLACTOMYCIN 7] gave an IC50 of 8 µM.

For the molecule `CC1=C(O)[C@@](C)(Cc2cccc(C(=O)c3ccccc3)c2)SC1=O` [THIOLACTOMYCIN 8], the midpoint of inhibition, the IC50, lay at 16 µM.

As to `CC1SC(=O)C(C)(C)C1=O` (stereo unspecified) [THIOLACTOMYCIN 10], the IC50 was determined as 46 µM.

The molecule `CC(C)=CCC/C(C)=C/CC1(C)C(=O)S[C@@H](C)C1=O` (stereo partly specified) [THIOLACTOMYCIN 11] returned an IC50 of 30 µM.

As for `C=C/C(C)=C/[C@@]1(C)SC(=O)C(C)=C1O` [THIOLACTOMYCIN], the 50% inhibitory concentration (IC50) turned out to be 49 µM.

`CC1=C(O)SC(C)C1=O` (stereo unspecified) [THIOLACTONE] displayed an IC50 of 471 µM.

In the case of `CN1CCN(CCCN2c3ccccc3Sc3ccc(C(F)(F)F)cc32)CC1` [TRIFLUOPERAZINE], the 50% inhibitory concentration (IC50) is 6 µM.

Molecule `C/C=C1/CN2CCc3c([nH]c4ccccc34)[C@@H]2C[C@@H]1Cc1nccc2c1[nH]c1ccccc12` [USAMBARENSINE] yielded an IC50 of 2 µM.

For `CCCCCCOc1c(OC)cc(NC(C)CCCN)c2nccc(C)c12` (stereo unspecified) [WR-242511], half-maximal inhibition (IC50) required 8 µM.

For the next assay, the system named is Leishmania infantum. Description: Antimicrobial activity against Leishmania infantum. The assay is classed as functional, organism-based.
`COc1ccc2nc3ccc(CO)cc3c(Cl)c2c1` gave a 50% inhibitory concentration (IC50) of 183 µM.

Molecule `COc1ccc2nc3ccc(N(CCCCCCCCN(c4ccc5nc6ccc(OC)cc6c(N)c5c4)c4ccc5nc6ccc(OC)cc6c(N)c5c4)c4ccc5nc6ccc(OC)cc6c(N)c5c4)cc3c(N)c2c1` showed an IC50 of 1 µM.

`COc1ccc2nc3ccc(COC(=O)c4ccc(Cl)cc4)cc3c(Cl)c2c1` registered a concentration for half-maximal inhibition (IC50) of 156 µM.

`COC(=O)OCc1ccc2nc3ccc(OC)cc3c(N)c2c1` gave a 50% inhibitory concentration (IC50) of 1 µM.

For `COC(=O)OCc1ccc2nc3ccc(OC)cc3c(Cl)c2c1`, half-maximal inhibition (IC50) required 3 µM.

With `COc1ccc2nc3ccc(COC(=O)c4ccccc4)cc3c(Cl)c2c1`, the half-inhibitory concentration (IC50) amounted to 137 µM. This IC50 is about 46-fold higher than that of the molecule before.

Turning to `CCCC(=O)OCc1ccc2nc3ccc(OC)cc3c(Cl)c2c1`, the 50% inhibitory concentration (IC50) was 3 µM.

In turn, `COc1ccc(C(=O)OCc2ccc3nc4ccc(OC)cc4c(Cl)c3c2)cc1` returned an IC50 of 125 µM. Against the preceding molecule, the IC50 is about 42-fold higher.

`COc1ccc2nc3ccc(COC(=O)c4ccc(Cl)cc4)cc3c(N)c2c1`: the concentration for half-maximal inhibition (IC50) was 3 µM.

In turn, `COc1ccc2nc3ccc(COC(=O)c4ccccc4)cc3c(N)c2c1` returned an IC50 of 35 µM.

`COc1ccc2nc3ccc(COC(=O)CC(C)C)cc3c(Cl)c2c1` gave a half-maximal inhibitory concentration (IC50) of 36 µM.

For `COc1ccc(C(=O)OCc2ccc3nc4ccc(OC)cc4c(N)c3c2)cc1`, the IC50 is 2 µM.

As to `COc1ccc2nc3ccc(COC(=O)c4ccc(F)cc4)cc3c(N)c2c1`, half-maximal inhibition (IC50) required 1 µM.

For the molecule `COc1ccc2nc3ccc(COC(=O)CC(C)C)cc3c(N)c2c1`, half-maximal inhibition (IC50) required 2 µM. Against the preceding molecule, the IC50 is about 2-fold higher.

As to `CCCC(=O)OCc1ccc2nc3ccc(OC)cc3c(N)c2c1`, the IC50 was 3 µM.

Molecule `COc1ccc2nc3ccc(NCCCCCCNc4ccc5nc6ccc(OC)cc6c(N)c5c4)cc3c(N)c2c1` showed an IC50 of 1 µM.

Consider `COc1ccc2nc3ccc(NCCCCNc4ccc5nc6ccc(OC)cc6c(N)c5c4)cc3c(N)c2c1`, for which half-maximal inhibition (IC50) was put at 5 µM. This IC50 lies about 5-fold higher than the previous one.

In turn, `COc1ccc2nc3cc(NCCCCCCCNc4ccc5nc6ccc(OC)cc6c(N)c5c4)ccc3c(N)c2c1` registered a concentration for half-maximal inhibition (IC50) of 9 µM.

As to `COc1ccc2nc3ccc(N(CCCCCCN(c4ccc5nc6ccc(OC)cc6c(N)c5c4)c4ccc5nc6ccc(OC)cc6c(N)c5c4)c4ccc5nc6ccc(OC)cc6c(N)c5c4)cc3c(N)c2c1`, the concentration for half-maximal inhibition (IC50) stood at 7 µM.

In turn, `COc1ccc2nc3ccc(N(CCCCCCCN(c4ccc5nc6ccc(OC)cc6c(Cl)c5c4)c4ccc5nc6ccc(OC)cc6c(Cl)c5c4)c4ccc5nc6ccc(OC)cc6c(Cl)c5c4)cc3c(Cl)c2c1` came in with a half-maximal inhibitory concentration (IC50) of 1 µM. This IC50 is about 7-fold lower than that of the molecule before.

The molecule `COc1ccc2nc3ccc(N(CCCCCN(c4ccc5nc6ccc(OC)cc6c(N)c5c4)c4ccc5nc6ccc(OC)cc6c(N)c5c4)c4ccc5nc6ccc(OC)cc6c(N)c5c4)cc3c(N)c2c1` came in with an IC50 of 2 µM. This IC50 lies about 2-fold higher than the previous one.

In the case of `COc1ccc2nc3ccc(N(CCCCCN(c4ccc5nc6ccc(OC)cc6c(Cl)c5c4)c4ccc5nc6ccc(OC)cc6c(Cl)c5c4)c4ccc5nc6ccc(OC)cc6c(Cl)c5c4)cc3c(Cl)c2c1`, inhibition was half-maximal at 2 µM (IC50).

`COc1ccc2nc3ccc(N(CCCCCCCN(c4ccc5nc6ccc(OC)cc6c(N)c5c4)c4ccc5nc6ccc(OC)cc6c(N)c5c4)c4ccc5nc6ccc(OC)cc6c(N)c5c4)cc3c(N)c2c1`: the half-inhibitory concentration (IC50) was determined as 139 µM. This IC50 lies about 70-fold higher than the previous one.

Consider `COc1ccc2nc3ccc(C)cc3c(N)c2c1`, for which the concentration for half-maximal inhibition (IC50) came to 1 µM. This IC50 is about 140-fold lower than that of the molecule before.

Molecule `COc1ccc2nc3ccc(CBr)cc3c(N)c2c1` registered a half-inhibitory concentration (IC50) of 4 µM.

Take `COc1ccc2nc3ccc(CBr)cc3c(Cl)c2c1`: inhibition was half-maximal at 6 µM (IC50).

In turn, `COc1ccc2nc3ccc(C)cc3c(Cl)c2c1` gave an IC50 of 10 µM.

`COc1ccc2nc3ccc(NCCCCNc4ccc5nc6ccc(OC)cc6c(Cl)c5c4)cc3c(Cl)c2c1` came in with an IC50 of 10 µM.

In turn, `COc1ccc2nc3ccc(NCCCCCCNc4ccc5nc6ccc(OC)cc6c(Cl)c5c4)cc3c(Cl)c2c1` displayed an IC50 of 3 µM.

`COc1ccc2nc3ccc(N(CCCCCCN(c4ccc5nc6ccc(OC)cc6c(Cl)c5c4)c4ccc5nc6ccc(OC)cc6c(Cl)c5c4)c4ccc5nc6ccc(OC)cc6c(Cl)c5c4)cc3c(Cl)c2c1`: inhibition was half-maximal at 68 µM (IC50).
